In patent US12544451B2, “Intracellular delivery compositions” (BIOND BIOLOGICS LTD., priority 2021, dated 2026):

What was measured:
A375 cells [1] = assay: Intracellular BRAF inhibition: Annexin V apoptosis assay in A375 cells (IncuCyte, CellTiter-Glo normalisation); type: cell-based; conditions: 1 μM or 3 μM agent, BRAF inhibitor at 10 μM
Description: FIGS. 42A-42D. A375 cells were seeded in 96 plate wells for 24 h to allow cells adherence (1500 cells/well). To each well a sample of the tested agent was added at the desired concentration (42A-42B) 1 μM; (42C-42D) […], except BRAF inhibitor, PF-04880594 that was added at 10 μM. (42A, 42C) Red area obtained from the Annexin V red reagent, a commonly used fluorescent dye identifying apoptotic cells, monitored in IncuCyte®. (42B, 42D) Red area normalized to the value obtained by CellTiter-Glo corresponding to intact cells.
Random modification was achieved by reaction of 1C5-Hel20-LC with PEI1800 in the presence of EDC, to give 1C5-Hel20-LC-r-C(O)—NH-PEI1800 (S8). The different constructs of payload conjugated directly to PEI were evaluated for their ability to penetrate A375 cells and induce apoptosis following BRAF inhibition. […]
1C5-Hel20-LC-HSA-PEI (S5C)×n conjugates were prepared by reduction of 1C5-Hel20-LC and activation with 2,2′-Dithiobis(5-nitropyridine) followed by conjugation to HSA-PEI×n. Intracellular BRAF inhibition by the different constructs was evaluated by a functional assay in A375 cells. The different conjugates were incubated with A375 cells in the presence of Annexin V red reagent, for 6 days, while monitoring fluorescence in IncuCyte® to identify apoptotic cells (FIG. 42A, C). […]

A375 cells [2] = assay: Internalization of PEI-modified IgG (4.5 PEIs) in the presence of endocytosis inhibitors; type: cell-based; conditions: overnight, PEI-modified mouse IgG (4.5 PEIs)
Description: Cationized moieties are thought to internalize using a natural endocytosis mechanism. The two relevant endocytosis mechanisms are caveolin- and clathrin-mediated endocytosis. The exact mechanism of internalization was elucidated by performing the internalization of PEI-modified IgG in the presence of known specific endocytosis inhibitors. A375 cells were incubated overnight with PEI-modified mouse IgG (4.5 PEIs) in the presence of Clathrin inhibitors (Amantadine or Chlorpromazine) or a Caveolin inhibitor (Genistein). […] This corroborates that Caveolin-mediated endocytosis is exploited by the PEI-modified payloads for internalization as inhibition of Clathrin-mediated endocytosis caused a compensatory increase in Caveolin-mediated endocytosis in the cells.

[3] = Zeta potential measurement (Zeta Sizer Ultra); type: physicochemical; conditions: alternative carriers and HSA before and after PEI modification; STD in separate column
Description: Zeta potential measurements were preformed using Zeta Sizer Ultra (Malvern Instruments). Samples' buffers were exchanged to 1 mM NaCl at 1 mg/mL protein concentration. 20 μL from each sample was loaded in zeta cells (DTS1070), five repeats for each sample were measured and the mean zeta potential in mV was obtained for each repeat. The average for the five measurements is reported with the standard deviation. The measurements were performed under the following conditions: temperature 25° C.; run numbers for each repeat 10-40; equilibration time: 60 seconds, without pause after sub runs; 60 seconds pause between repeats; voltage was selected automatic and monomodal analysis method was used in the data processing.
Zeta potential measurements were preformed using Zeta Sizer Ultra (Malvern Instruments), samples buffer was exchanged to 1 mM NaCl at 1 mg/mL protein concentration. 20 μL from each sample were loaded in zeta cells (DTS1070), five repeats for each sample were measured and the mean zeta potential in mV was obtained.

Compound | effect on internalization of PEI-modified IgG (A375 cells [2]) | further results
N#CCCNc1nccc(-c2cn(CC(F)F)nc2-c2cnc3[nH]ccc3c2)n1 [PF-04880594, reference compound] | – | apoptosis (Annexin V red signal) (A375 cells [1]): highly potent cell killer
O=c1c(-c2ccc(O)cc2)coc2cc(O)cc(O)c12 [Genistein] | inhibited the internalization of PEI-modified IgG | –
Fibrinogen | – | Zeta potential (mV) [3]: −1.4 mV
CN(C)CCCN1c2ccccc2Sc2ccc(Cl)cc21 [Chlorpromazine] | resulted in increased internalization | –
